System: human intestinal Caco-2 cells
Assay: Caco-2 permeability assay
Format: in vitro ADME
Method: Section 4: DMPK Methods and Further Discussion […]
Caco-2 Permeability studies: The permeability assay for SSA 1-6 and 10 was performed at Cyprotex Discovery Limited (Macclesfield, UK) and analysed at Cancer Research Horizons. SSA 1-6 and 10 were incubated at a final concentration of 10 uM with human intestinal Caco-2 cells at 37°C, 5% CO2 with a relative humidity of 95%. After 120 minutes the apical compartment inserts and the companion plates were separated, and the apical and basolateral samples were transferred. Incubations were conducted in duplicate and the fluorescent membrane integrity marker; Lucifer Yellow was co-incubated with the SSA compounds at the start of the assay. Compounds of known permeability were used as controls and were within acceptance criteria. Further processing is described in:
Sample preparation and liquid chromatography-mass spectrometry analysis.
Sample preparation and liquid chromatography-mass spectrometry analysis: All samples were centrifuged at 3500 rpm at 4°C for 10 min to precipitate protein and enable sampling of supernatant prior to appropriate dilution for liquid chromatography-mass spectrometry (LC-MS/MS analysis). […]
(1.5 µm, 50 x 2.1 mm) at a temperature of 40°C and a binary mobile phase gradient at a flow rate of […]
0.4 mL/min. […]
For the purpose of apparent permeability determination, samples were analysed using a Waters I-Class ultra-high-performance liquid chromatography (UHPLC) system coupled to a Waters Vion mass spectrometer (Waters, Elstree, UK). Separation of analytes was achieved used an Accucore Vanquish C18+ column (1.5 µm, 50 x 2.1 mm) at a temperature of 40°C and a binary mobile phase gradient at a flow rate of 0.4 mL/min. Initial LC conditions for SSA 1-4 comprised 66% solvent A (0.1% formic acid + 5 mM ammonium acetate in water), 33% solvent B (0.1% formic acid + 5 mM ammonium acetate in methanol); this was ramped to 63% B at 1.8 min and 95% B at 1.9 min, held for 0.5 min and then immediately returned to initial conditions and held for the remaining 0.5 min of the method. Initial LC conditions for SSA 5-10 comprised 54% solvent A (0.1% formic acid + 5 mM ammonium acetate in water), 46% solvent B (0.1% formic acid + 5 mM ammonium acetate in methanol); this was ramped to 67% B at 1.8 min and 95% B at 1.9 min, held for 0.5 min and then immediately returned to initial conditions and held for the remaining 0.5 min of the method.
Sample analysis was by electrospray ionisation in negative ion mode. The capillary voltage was 2.5 kV, desolvation gas was 600°C.
For the purpose of PK determination of SSA 5, samples were analysed using a Waters I-Class ultra-high-performance liquid chromatography (UHPLC) system coupled to a Waters Xevo TQ-XS mass spectrometer. Separation of analytes was achieved using an Accucore Vanquish C18+ column (1.5 µm, 50 x 2.1 mm) at a temperature of 40°C and a binary mobile phase gradient at a flow rate of 0.4 mL/min. Initial LC conditions comprised 54% solvent A (0.1% formic acid + 5 mM ammonium acetate in water), 46% solvent B (0.1% formic acid + 5 mM ammonium acetate in methanol); this was ramped to 67% B at 1.8 min and 95% B at 1.9 min, held for 0.5 min and then immediately returned to initial conditions and held for the remaining 0.5 min of the method. Sample analysis was by electrospray ionisation combined with multiple reaction monitoring in negative ion mode. The […]
Mean blood concentration-time profile: Within these studies SSAs 3 and 5 were dosed at 1 mg/kg, to female CD-1 mice (n=9 per SSA) via an intravenous tail vein bolus dose formulation as solutions in 2 % DMSO/98 % water. Blood taken from the mouse tail vein was extracted by protein precipitation.
SSA concentrations were calculated through UPLC-MS/MS techniques, with tolbutamide as the internal standard. The assay met the acceptance criteria with >7 calibration standards within ± 20% of nominal concentration. The lower limit of quantitation was 2 ng/mL for both compounds. PK […]

[1] = % SSA recovered from the assay after 2 hours

O=C(NCS(=O)(=O)O)Nc1ccc(C(F)(F)F)cc1 [SSA 3]
Recovery (A-B) [1]: 99% | Recovery (B-A) [1]: 98% | Papp (B-A) (Caco-2, 10 uM, 120 minutes, n = 2 technical repeats): 56 nm/s | Papp (B-A) class (Caco-2, in words): moderate
